Test results as given in article PMC12550625, “A Potent Oral Sialylation Inhibitor Augments the Immunotherapy in Pancreatic Ductal Adenocarcinoma” (ACS Central Science, 2025).

Experiments:
[1] = biological target: T1, ST3Gal1 (Sus scrofa, UniProt Q02745); test: SPR (CM5 chip, immobilized purified ST3Gal1); assay type: binding
T1 construct: Δ45, N-terminal 6xHis-MBP fusion
T1 sequence (Q02745 46-343): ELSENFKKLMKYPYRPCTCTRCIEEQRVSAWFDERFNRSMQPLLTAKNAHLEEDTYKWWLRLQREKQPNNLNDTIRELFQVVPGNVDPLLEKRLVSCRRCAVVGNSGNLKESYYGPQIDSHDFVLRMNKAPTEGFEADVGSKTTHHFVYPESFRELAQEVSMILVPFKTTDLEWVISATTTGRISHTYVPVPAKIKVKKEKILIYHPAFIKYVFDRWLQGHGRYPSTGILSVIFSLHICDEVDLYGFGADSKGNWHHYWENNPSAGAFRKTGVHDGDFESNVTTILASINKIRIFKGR

[2] = biological target: T2, ST6Gal1 (Homo sapiens, UniProt P15907); test: SPR (CM5 chip, immobilized purified ST6Gal1); assay type: binding
T2 construct: Δ131, 3xFLAG
T2 sequence (P15907 132-406): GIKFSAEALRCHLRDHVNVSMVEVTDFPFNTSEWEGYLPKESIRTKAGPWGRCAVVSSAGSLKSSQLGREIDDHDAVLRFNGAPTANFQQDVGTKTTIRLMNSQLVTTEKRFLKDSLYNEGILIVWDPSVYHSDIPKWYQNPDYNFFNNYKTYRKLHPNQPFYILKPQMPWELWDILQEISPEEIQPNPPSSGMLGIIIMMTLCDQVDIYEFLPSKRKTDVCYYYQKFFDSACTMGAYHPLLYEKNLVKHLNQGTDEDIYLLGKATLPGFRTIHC
From the text: SPR (CM5 chip, immobilized purified ST6Gal1) on ST6Gal1 | Pull-down and SPR analyses confirmed that Y-320 binds to ST6Gal1 with high affinity

Kd [1]: 709 nM | Kd [2]: 885 nM
Structure (SMILES): Cc1c(C(=O)Nc2ccc(N3CCC(N4CCOCC4)CC3)c(C#N)c2)cnn1-c1ccc(Cl)cc1 [Y-320]
